Results: patent US5401648A, “Peptides having peptidyl transferase inhibiting activity and methods of use thereof” (University of Maryland College Park, priority 1993, dated 1995)

Legend:
[1] = test system: peptidyl transferase activity of the 50S subunits; assay: Fragment reaction peptidyl transferase assay with dissociated 50S subunits; type: biochemical, B. subtilis BR151
Procedure: (§1) The fragment reaction was used to assay peptidyl transferase activity. Reaction mixes consisted of 60 mM Tris-HCl (pH 7.4), 400 mM KCl, 20 mM magnesium sulfate, and 1 mM neutralized puromycin in 50 μl, to which was added 25 μl absolute ethanol. Unless specifically noted, 70S ribosomes purified from B. subtilis BR151 as described in Spedding^1/ were added to 0.55 uM ^35 S-labeled N-formylmethionine, charged to tRNA and digested with endonuclease T1 as described by Marcker^2/, was added to each reaction at 1×10^6 to 2×10^6 cpm.
(§2) Peptide inhibitors were typically preincubated with the ribosomes prior to addition to the other reactants. Antibiotic inhibitors such as chloramphenicol were added to reaction mixes with the ribosomes but without the preincubation step. […] Peptidyl transferase reaction mixes were incubated on ice for 1 h, and were terminated by addition of 50 μl of 0.3M sodium acetate saturated with magnesium sulfate followed by 1 ml of ethyl acetate. The ethyl acetate phase was counted for radioactivity. All peptidyl transferase assays were performed in duplicate or triplicate, and the replicates varied by less than 5%. In separate experiments, the inhibitory activity of a single peptide preparation on a single ribosome preparation varied by as much as 10%.
The 50S subunit contains the target for the 5-mer peptide. […]

peptidyl transferase = assay: Fragment reaction peptidyl transferase assay with 70S ribosomes; type: biochemical, B. subtilis BR151; conditions: preincubation of inhibitor with ribosomes prior to addition to other reactants
Procedure: as §1, §2

| Compound | effect on the peptidyl transferase activity of the 50S subunits [1] | effect of preincubation with ribosomes on inhibitory effect on peptidyl transferase (peptidyl transferase) |
| --- | --- | --- |
| 4-mer: 4-mer comparison peptide (SEQ ID NO: 5), sequence not printed in the text (MVKT) | little effect |  |
| O=C(N[C@H](CO)[C@H](O)c1ccc([N+](=O)[O-])cc1)C(Cl)Cl [chloramphenicol] |  | failed to increase |
